Source: article PMC11996864, “A small-molecule inhibitor of BCL10-MALT1 interaction abrogates progression of diffuse large B cell lymphoma” (The Journal of Clinical Investigation, 2025)
“And” between values parts separate entries of the source, which are not always exact repeats. Equal entries are not always repeated. Where two headings read alike, the source gives them in different places.

Experiment: In vivo pharmacokinetics, plasma LC-MS/MS
Experimental: Pharmacokinetic and cytochrome P450 inhibition studies. Studies were performed with the assistance of Touchstone Biosciences (Plymouth Meeting, Pennsylvania). For pharmacokinetic bioanalysis, male CD-1 mice were fasted overnight before being dosed with M1i-124 via oral gavage (20mg/kg), intraperitoneal injection in the lower right quadrant of the abdomen (20 mg/kg), or intravenous tail vein injection (5 mg/kg). All blood samples were taken via tail vein at 5, 15, and 30 minutes, and 1, 2, 4, 6, 8, and 24 hours after compound administration. The plasma concentration of the compound was determined using LC-MS/MS analysis. […]

[1] = male, CD-1, mouse, in vivo, iv, 5 mg/kg, IV, read-out: Plasma concentration (IV)
[2] = male, CD-1, mouse, in vivo, po, 20 mg/kg, PO, read-out: Plasma concentration (PO)
[3] = male, CD-1, mouse, plasma, ip, 20 mg/kg, IP, read-out: Plasma concentration (IP)
[4] = male, CD-1, mouse, plasma, iv, 5 mg/kg, IV, read-out: Plasma concentration (IV)
[5] = male, CD-1, mouse, plasma, po, 20 mg/kg, PO, read-out: Plasma concentration (PO)

With `O=S(=O)(NCc1ccc2c(c1)OCO2)c1ccc(Cc2ccc(S(=O)(=O)NCc3ccc4c(c3)OCO4)cc2)cc1` [M1i-124] the “Plasma concentration (PO)” value (PO, 8 hours) was 8.44 ng/mL and 9.62 ng/mL, the “Plasma concentration (PO)” value (PO, 24 hours) was 2.39 ng/mL and 2.74 ng/mL and the concentration at 6 h (male, CD-1, mouse, in vivo, ip, 20 mg/kg, IP, read-out: Plasma concentration (IP)) was 54.8 ng/mL. For the same compound, the concentration at 24 h (male, CD-1, mouse, in vivo, ip, 20 mg/kg, IP, 24 hours, read-out: Plasma concentration (IP)) was 7.17 ng/mL, the concentration at 0.5 h [1] was 412 ng/mL and the concentration at 4 h [1] was 20.4 ng/mL. For the same compound, the concentration at 8 h (male, CD-1, mouse, in vivo, iv, 5 mg/kg, IV, 8 hours, read-out: Plasma concentration (IV)) was 10.9 ng/mL, the concentration at 0.5 h [2] was 42.6 ng/mL and the concentration at 4 h [2] was 15.4 ng/mL. It also gave a concentration at 0.083 h [3] of 451 ng/mL, a concentration at 0.25 h [3] of 509 ng/mL and a concentration at 0.5 h [3] of 596 ng/mL. The concentration at 1 h [3] was 349 ng/mL, the concentration at 2 h [3] was 259 ng/mL and the concentration at 4 h [3] was 126 ng/mL. For the same compound, the concentration at 6 h [3] was 75.3 ng/mL, the concentration at 8 h (male, CD-1, mouse, plasma, ip, 20 mg/kg, IP, 8 hours, read-out: Plasma concentration (IP)) was 53.2 ng/mL and the concentration at 24 h (male, CD-1, mouse, plasma, ip, 20 mg/kg, IP, 24 hours, read-out: Plasma concentration (IP)) was 9.14 ng/mL. The Cmax (male, CD-1, mouse, plasma, ip, mice, 20 mg/kg i.p., read-out: mean peak plasma concentration (Cmax)) was 681 ng/mL, the half-life (male, CD-1, mouse, plasma, ip, mice, 20 mg/kg i.p., read-out: t1/2 (converted)) was 6.33 h and the concentration at 0.083 h [4] was 2070 ng/mL. For the same compound, the concentration at 0.25 h [4] was 1200 ng/mL, the concentration at 0.5 h [4] was 361 ng/mL and the concentration at 1 h [4] was 122 ng/mL. For the same compound, the concentration at 2 h [4] was 24.3 ng/mL, the concentration at 4 h [4] was 13.4 ng/mL and the concentration at 6 h [4] was 11.6 ng/mL. The concentration at 8 h (male, CD-1, mouse, plasma, iv, 5 mg/kg, IV, 8 hours, read-out: Plasma concentration (IV)) was 8.84 ng/mL, the concentration at 24 h (male, CD-1, mouse, plasma, iv, 5 mg/kg, IV, 24 hours, read-out: Plasma concentration (IV)) was 2.62 ng/mL and the C0 (male, CD-1, mouse, plasma, iv, mice, 5 mg/kg i.v., read-out: mean initial plasma concentration) was 1860 ng/mL. It also gave a Vd (male, CD-1, mouse, plasma, iv, mice, 5 mg/kg i.v., read-out: steady-state volume of distribution (Vss)) of 15.4 L/kg, a clearance (male, CD-1, mouse, plasma, iv, mice, 5 mg/kg i.v., read-out: systemic clearance) of 77.9 mL/min/kg and a half-life (male, CD-1, mouse, plasma, iv, mice, 5 mg/kg i.v., read-out: terminal half-life (t1/2) (converted)) of 8.72 h. For the same compound, the concentration at 0.083 h [5] was 310 ng/mL, the concentration at 0.25 h [5] was 78.2 ng/mL and the concentration at 0.5 h [5] was 35.8 ng/mL. For the same compound, the concentration at 1 h [5] was 22.5 ng/mL, the concentration at 2 h [5] was 17.7 ng/mL and the concentration at 4 h [5] was 11.5 ng/mL. The concentration at 6 h [5] was 13.1 ng/mL, the concentration at 8 h (male, CD-1, mouse, plasma, po, 20 mg/kg, PO, 8 hours, read-out: Plasma concentration (PO)) was 11.7 ng/mL and the concentration at 24 h (male, CD-1, mouse, plasma, po, 20 mg/kg, PO, 24 hours, read-out: Plasma concentration (PO)) was 3.18 ng/mL. For the same compound, the half-life (male, CD-1, mouse, plasma, po, mice, 20 mg/kg p.o., read-out: t1/2 (converted)) was 8.76 h, the Cmax (male, CD-1, mouse, plasma, mice, 20 mg/kg oral, read-out: Cmax) was 294 ng/mL and the “adverse clinical signs during PK studies” value (mice, 24 hours, result in words) was “No adverse clinical signs were observed”.
